In publication PMC12903969, “Discovery of a Novel and Potent Kir4.1 Inhibitor as a Safe and Rapid‐Onset Antidepressant Agent in Mice” (Advanced Science, 2025):
Where two headings read alike, the source gives them in different places.

What was measured:
Kir4.1 = target: T1, Kir4.1 (Homo sapiens, UniProt P78508); assay: Whole-cell patch clamp, Kir4.1 currents in transfected CHO-K1 cells; assay type: cell-based; conditions: for inhibition at 1 µM: CHO-K1, 1 μM; for inhibition at 10 µM: CHO-K1, 10 μM
T1 construct: host or cells: CHO-K1
T1 sequence (P78508 1-379): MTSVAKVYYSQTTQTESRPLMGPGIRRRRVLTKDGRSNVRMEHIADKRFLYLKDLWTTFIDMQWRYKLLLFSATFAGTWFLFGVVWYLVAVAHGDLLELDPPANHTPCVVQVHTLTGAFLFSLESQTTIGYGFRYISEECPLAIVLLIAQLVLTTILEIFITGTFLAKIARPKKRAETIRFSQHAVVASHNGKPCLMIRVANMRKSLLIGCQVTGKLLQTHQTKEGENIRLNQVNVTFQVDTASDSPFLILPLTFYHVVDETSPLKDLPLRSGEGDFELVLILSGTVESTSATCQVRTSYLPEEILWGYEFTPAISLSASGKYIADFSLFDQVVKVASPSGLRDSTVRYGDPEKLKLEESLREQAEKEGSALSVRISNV
Description: Plasmids encoding WT human potassium channels Kir1.1, Kir2.1, Kir2.2, Kir4.1, and Kir4.2 were obtained from the Beijing Genomics Institute. All point mutations were constructed using the QuickChange II Site‐Directed Mutagenesis Kit (Stratagene) and subsequently verified by sequencing.
CHO‐K1 cells were maintained in DMEM/F12 growth medium containing 10% fetal bovine serum. Plasmids encoding the target genes (3600 ng) and enhanced green fluorescent protein (400 ng) were cotransfected into cells using Lipofectamine 2000 (Invitrogen) in accordance with the manufacturer's instructions. Cells were seeded onto poly‐d‐lysine (PDL)‐coated glass coverslips 1 h prior to electrophysiological recordings. All cells were cultured under standard conditions of 5% CO2 at 37 °C.
Whole‐cell patch‐clamp recordings were obtained either in transiently transfected CHO‐K1 cells or in primary cultured astrocytes at room temperature using standard patch‐clamp techniques with an Axopatch‐700B amplifier (Axon Instruments). The signals were filtered at 2 kHz and sampled at 20 kHz using the Digidata 1440A interface (Axon Instruments). The resistance of borosilicate glass pipettes was typically 2–4 MΩ when filled with the internal solution. Drug application was facilitated using a BPS perfusion system (ALA Scientific Instruments). Macroscopic currents generated by expressed potassium channels were recorded under the voltage‐clamp conditions with an internal pipette solution composed of (in mM): 140 KCl, 5 NaCl, 1 CaCl2, 1 MgCl2, 10 HEPES, and 10 EGTA, pH 7.2 adjusted with KOH. The external solution contained (in mM): 140 NaCl, 5 KCl, 2 CaCl2, 1 MgCl2, 10 glucose, and 10 HEPES, pH 7.4 adjusted with NaOH. Currents were elicited with a hyperpolarized voltage at −120 mV from the holding potential of −80 mV, followed by a ramp voltage depolarizing to +50 mV. Astrocytic resting membrane potentials were recorded under current‐clamp conditions (I = 0 pA) using standard internal and external solutions, determined immediately after achieving whole‐cell mode.

[1] = test system: MDA-MB-468 breast cancer cells; assay: Cytotoxicity test (CCK-8); assay type: cell-based; conditions: read-out: IC50 ± SD (μM) for MDA-MB-468 Inhibition
Description: Cytotoxicity of all the tested compounds was determined using the cell counting kit‐8 (CCK‐8) assay kit (Beyotime, Shanghai, China). Briefly, MDA‐MB‐468 was cultured in L15 medium and plated in 96‐well plates at a density of 12,000 cells per well for 24 h at 37 °C in a 5% CO2 incubator. The tested compounds were dissolved in DMSO and diluted with culture medium (DMSO final concentration < 0.4%). Then the cells were treated with compounds (0.41, 1.23, 3.70, 11.11, 33.33, 100.00 µM) for 48 h. After treatments, removal of the supernatant liquor, 100 µL of new media diluted CCK‐8 solution (10% CCK‐8) was added into each well and incubated at 37 °C for 2 h. The absorbance of the mixture was directly measured at 450 nm. The results are presented as a percentage of the control.

[2] = +50 mV, read-out: Kir4.1 Inhibition ± SD (%) at 1 μM, +50 mV
[3] = -120 mV, read-out: Kir4.1 Inhibition ± SD (%) at 1 μM, -120 mV
[4] = +50 mV, read-out: Kir4.1 Inhibition ± SD (%) at 10 μM, +50 mV
[5] = -120 mV, read-out: Kir4.1 Inhibition ± SD (%) at 10 μM, -120 mV
[6] = Homo sapiens, MDA-MB-468, MDA-MB-468 breast cancer cells

Structure (SMILES)	inhibition at 1 µM (Kir4.1; [2])	inhibition at 1 µM (Kir4.1; [3])	inhibition at 10 µM (Kir4.1; [4])	inhibition at 10 µM (Kir4.1; [5])	IC50 [1, 6]	Kir4.1 Inhibition ± SD (%) at 10 μM, +50 mV (Kir4.1; +50 mV, 10 µM)	Kir4.1 Inhibition ± SD (%) at 10 μM, -120 mV (Kir4.1; -120 mV)	IC50 ([1]; MDA-MB-468 breast cancer cells)	Kir4.1 Inhibition ± SD (%) at 1 μM, +50 mV (Kir4.1; +50 mV)	Kir4.1 Inhibition ± SD (%) at 1 μM, -120 mV (Kir4.1; -120 mV)	Kir4.1 Inhibition ± SD (%) at 10 μM, +50 mV (Kir4.1; +50 mV)
c1ccc2c(c1)oc1ccc(Nc3cc(NCCCN4CCOCC4)ncn3)cc12 [JX3222, N^4-(dibenzo[b,d]furan-2-yl)-N^6-(3-morpholinopropyl)pyrimidine-4,6-diamine]	5.55 ± 2.74%	-0.94 ± 6.65%	87.3 ± 6.4%	71.1 ± 6.03%	44 ± 1.48 µM						
c1ccc2c(c1)oc1ccc(Nc3cncc(NCCCN4CCOCC4)n3)cc12 [JX3223, N^2-(dibenzo[b,d]furan-2-yl)-N^6-(3-morpholinopropyl)pyrazine-2,6-diamine]					23 ± 3.41 µM	7.01 ± 4.11%	6.62 ± 0.29%				
c1ccc2c(c1)oc1ccc(Nc3cncc(NCCCN4CCOCC4)n3)cc12 [JX3224, N^2-(dibenzo[b,d]furan-2-yl)-N^6-(3-morpholinopropyl)pyrazine-2,6-diamine]	29.1 ± 11.8%	11.3 ± 5.07%				96.66 ± 1.05%	87.90 ± 2.73%	21.6 ± 0.8 µM			
c1ccc2c(c1)oc1ccc(Nc3cnc(NCCCN4CCOCC4)cn3)cc12 [JX3225, N^2-(dibenzo[b,d]furan-2-yl)-N^5-(3-morpholinopropyl)pyrazine-2,5-diamine]	3.73 ± 5.09%	8.36 ± 3.94%	96.9 ± 1.28%	94.3 ± 2.6%	31.6 ± 5.27 µM						
c1ccc2c(c1)oc1ccc(N[C@H]3CC[C@@H](NCCCN4CCOCC4)CC3)cc12 [JX3226, (1s,4s)-N^1-(dibenzo[b,d]furan-2-yl)-N^4-(3-morpholinopropyl)cyclohexane-1,4-diamine]							86.98 ± 0.69%	19.5 ± 1.64 µM	3.35 ± 4.46%	6.91 ± 6.13%	94.03 ± 1.98%
c1ccc2c(c1)oc1ccc(NC34C[C@@H]5C[C@@H](CC(NCCCN6CCOCC6)(C5)C3)C4)cc12 [JX3227, (1s,3r,5R,7S)-N^1-(dibenzo[b,d]furan-2-yl)-N^3-(3-morpholinopropyl)adamantane-1,3-diamine]							64.42 ± 3.05%	> 50 µM	9.02 ± 5.70%	7.11 ± 1.17%	88.04 ± 4.11%
c1ccc2c(c1)oc1ccc(NC3CC4(CCN(CCCN5CCOCC5)CC4)C3)cc12 [JX3228, N-(dibenzo[b,d]furan-2-yl)-7-(3-morpholinopropyl)-7-azaspiro[3.5]nonan-2-amine]	18.4 ± 3.79%	0.88 ± 2.32%	73 ± 3.72%	17.1 ± 6.3%	11.2 ± 0.74 µM						
c1ccc2c(c1)oc1ccc(N3CCC4(CC3)CN(CCCN3CCOCC3)C4)cc12 [JX3229, 4-(3-(7-(dibenzo[b,d]furan-2-yl)-2,7-diazaspiro[3.5]nonan-2-yl)propyl)morpholine]			26.8 ± 9.64%	4.9 ± 7.34%	29.5 ± 1.09 µM						
c1ccc2c(c1)oc1ccc(N3CCC4(CCN(CCCN5CCOCC5)CC4)CC3)cc12 [JX3230, 4-(3-(9-(dibenzo[b,d]furan-2-yl)-3,9-diazaspiro[5.5]undecan-3-yl)propyl)morpholine]			63.3 ± 6.48%	15.6 ± 0.73%	> 50 µM						
c1ccc2c(c1)oc1ccc(Nc3ccnc(OCCCN4CCOCC4)n3)cc12 [JX3231, N-(dibenzo[b,d]furan-2-yl)-2-(3-morpholinopropoxy)pyrimidin-4-amine]	7.39 ± 3.45%	4.14 ± 5.52%	96.3 ± 1.23%	90.5 ± 2.35%	19.7 ± 0.5 µM						
CN(CCCN1CCOCC1)c1nccc(Nc2ccc3oc4ccccc4c3c2)n1 [JX3232, N^4-(dibenzo[b,d]furan-2-yl)-N^2-methyl-N^2-(3-morpholinopropyl)pyrimidine-2,4-diamine]	6.81 ± 4.5%	-2.25 ± 0.47%	96.94 ± 0.69%	93.2 ± 1.48%	6.77 ± 0.68 µM						
CC(CNc1nccc(Nc2ccc3oc4ccccc4c3c2)n1)CN1CCOCC1 (stereo not drawn) [JX3233, N^4-(dibenzo[b,d]furan-2-yl)-N^2-(2-methyl-3-morpholinopropyl)pyrimidine-2,4-diamine]	4.34 ± 8.43%	2.58 ± 3.95%	92.2 ± 1.15%	97.2 ± 1.69%	10.44 ± 0.01 µM						
OC(CNc1nccc(Nc2ccc3oc4ccccc4c3c2)n1)CN1CCOCC1 (stereo not drawn) [JX3234, 1-((4-(dibenzo[b,d]furan-2-ylamino)pyrimidin-2-yl)amino)-3-morpholinopropan-2-ol]	11.2 ± 5.26%	5.91 ± 6.31%	94.83 ± 0.75%	88.4 ± 2.42%	17.1 ± 0.83 µM						
c1ccc2c(c1)oc1ccc(Nc3ccnc(NCC4(CN5CCOCC5)CC4)n3)cc12 [JX3235, N^4-(dibenzo[b,d]furan-2-yl)-N^2-((1-(morpholinomethyl)cyclopropyl)methyl)pyrimidine-2,4-diamine]	10.8 ± 2.21%	6.83 ± 3.85%	92.4 ± 3.68%	85.4 ± 5.46%	11.3 ± 0.32 µM						
O=C(NCCNc1nccc(Nc2ccc3oc4ccccc4c3c2)n1)N1CCOCC1 [JX3236, N-(2-((4-(dibenzo[b,d]furan-2-ylamino)pyrimidin-2-yl)amino)ethyl)morpholine-4-carboxamide]	5 ± 5.21%	-4.25 ± 7.82%	89.24 ± 0.5%	70.8 ± 2.5%	21.9 ± 1.01 µM						
CC(C)(C)OC(=O)NCCCNc1nccc(Nc2ccc3oc4ccccc4c3c2)n1 [JX3237, tert-butyl (3-((4-(dibenzo[b,d]furan-2-ylamino)pyrimidin-2-yl)amino)propyl)carbamate]	12.5 ± 7.25%	7.65 ± 4.73%	89.1 ± 3.59%	73.8 ± 0.93%	4.84 ± 0.06 µM						
CCN(CC)CCCNc1nccc(Nc2ccc3oc4ccccc4c3c2)n1 [JX3238, N^4-(dibenzo[b,d]furan-2-yl)-N^2-(3-(diethylamino)propyl)pyrimidine-2,4-diamine]	27 ± 12.3%	2.21 ± 3.14%	98.5 ± 0.23%	93.1 ± 2.15%	10.3 ± 3.8 µM						
c1ccc2c(c1)oc1ccc(Nc3ccnc(NCCCN4CCCC4)n3)cc12 [JX3239, N^4-(dibenzo[b,d]furan-2-yl)-N^2-(3-(pyrrolidin-1-yl)propyl)pyrimidine-2,4-diamine]	53.2 ± 3.51%	36.4 ± 5.31%	96 ± 2.25%	90.9 ± 4.5%	11.1 ± 0.81 µM						
